Values of other authors in patent US11517624B2, “Pharmaceutical composition for the parenteral administration of ultrashort-effective β-adrenoreceptor antagonists” (AOP ORPHAN PHARMACEUTICALS AG, priority 2007, dated 2022).

COCCc1ccc(OCC(O)CNC(C)C)cc1 (stereo not shown) [metoprolol]
elimination half-life t1/2: 1.5 h
